System: MV-4-11 cells
Assay: Gene expression microarray analysis (Affymetrix PrimeView) and GSEA
Format: cell-based, human
Parameters: RFU PODN (11730768_x_at) / Fold change /veh PODN (11730768_x_at) / RFU LINC00158 (11744669_a_at) / Fold change /veh LINC00158 (11744669_a_at) / RFU DUSP10 (11751237_a_at) / Fold change /veh DUSP10 (11751237_a_at) / RFU ID3 (11757404_x_at) / Fold change /veh ID3 (11757404_x_at) / RFU PLEKHG5 (11737974_s_at) / Fold change /veh PLEKHG5 (11737974_s_at) / RFU LRRC4B (11730491_at) / Fold change /veh LRRC4B (11730491_at) / RFU GIMAP4 (11747438_a_at) / Fold change /veh GIMAP4 (11747438_a_at) / RFU KRT8 (11758183_x_at) / Fold change /veh KRT8 (11758183_x_at) / RFU CNN1 (11734310_a_at) / Fold change /veh CNN1 (11734310_a_at) / RFU VPS37D (11726825_at) / Fold change /veh VPS37D (11726825_at) / RFU C10orf10 (11716522_x_at) / Fold change /veh C10orf10 (11716522_x_at) / RFU KIR2DL2 /// KIR2DL4 /// KIR2DL5A /// KIR2DL5B /// KIR2DS1 /// KIR2DS2 /// KIR2DS3 /// KIR2DS4 /// KIR3DL3 /// KIR3DL3 /// KIR3DS1 (11738374_at) / Fold change /veh KIR2DL2 /// KIR2DL4 /// KIR2DL5A /// KIR2DL5B /// KIR2DS1 /// KIR2DS2 /// KIR2DS3 /// KIR2DS4 /// KIR3DL3 /// KIR3DL3 /// KIR3DS1 (11738374_at) / RFU C1QL1 (11718748_at) / Fold change /veh C1QL1 (11718748_at) / RFU TMPRSS4 (11747572_a_at) / Fold change /veh TMPRSS4 (11747572_a_at) / RFU HAMP (11756126_x_at) / Fold change /veh HAMP (11756126_x_at) / RFU RNFT2 (11725882_a_at) / Fold change /veh RNFT2 (11725882_a_at) / RFU NR4A2 (11747474_a_at) / Fold change /veh NR4A2 (11747474_a_at) / RFU ABCC12 (11746883_a_at) / Fold change /veh ABCC12 (11746883_a_at) / RFU TMEM136 (11760407_x_at) / Fold change /veh TMEM136 (11760407_x_at) / RFU CLDN22 /// WWC2 (11732394_at) / Fold change /veh CLDN22 /// WWC2 (11732394_at) / RFU HLA-DPB1 (11760878_x_at) / Fold change /veh HLA-DPB1 (11760878_x_at) / RFU SPINT1 (11716480_a_at) / Fold change /veh SPINT1 (11716480_a_at) / RFU GAP43 (11754022_s_at) / Fold change /veh GAP43 (11754022_s_at) / RFU A4GNT (11735810_at) / Fold change /veh A4GNT (11735810_at) / RFU PRB3 (11715151_x_at) / Fold change /veh PRB3 (11715151_x_at) / RFU TUBB4B (11761932_at) / Fold change /veh TUBB4B (11761932_at) / RFU CAPN14 (11732068_a_at) / Fold change /veh CAPN14 (11732068_a_at) / RFU TMCC2 (11721928_a_at) / Fold change /veh TMCC2 (11721928_a_at) / RFU IRGQ (11745062_a_at) / Fold change /veh IRGQ (11745062_a_at) / RFU FAM174B (11720279_a_at) / Fold change /veh FAM174B (11720279_a_at) / RFU TMPRSS4 (11748680_a_at) / Fold change /veh TMPRSS4 (11748680_a_at) / RFU FAM212B (11763350_a_at) / Fold change /veh FAM212B (11763350_a_at) / RFU PLEKHG5 (11743358_a_at) / Fold change /veh PLEKHG5 (11743358_a_at) / RFU ZSCAN30 (11745921_a_at) / Fold change /veh ZSCAN30 (11745921_a_at) / RFU CMKLR1 (11741424_a_at) / Fold change /veh CMKLR1 (11741424_a_at) / RFU LOC101060620 /// MAPK8IP1 (11723275_at) / Fold change /veh LOC101060620 /// MAPK8IP1 (11723275_at) / RFU SPTSSB (11747773_x_at) / Fold change /veh SPTSSB (11747773_x_at) / RFU PRSS12 (11739890_at) / Fold change /veh PRSS12 (11739890_at) / RFU BIN1 (11741810_x_at) / Fold change /veh BIN1 (11741810_x_at) / RFU WNT11 (11732464_a_at) / Fold change /veh WNT11 (11732464_a_at) / RFU C10orf10 (11716521_a_at) / Fold change /veh C10orf10 (11716521_a_at) / RFU C5orf56 (11738089_at) / Fold change /veh C5orf56 (11738089_at) / RFU CYB561 (11721691_x_at) / Fold change /veh CYB561 (11721691_x_at) / RFU ANKRD19P (11752326_a_at) / Fold change /veh ANKRD19P (11752326_a_at) / RFU OR2T12 /// OR2T33 /// OR2T8 (11738714_s_at) / Fold change /veh OR2T12 /// OR2T33 /// OR2T8 (11738714_s_at) / RFU VCAN (11748164_a_at) / Fold change /veh VCAN (11748164_a_at) / RFU JSRP1 (11732532_at) / Fold change /veh JSRP1 (11732532_at) / RFU KRTAP10-11 (11738290_x_at) / Fold change /veh KRTAP10-11 (11738290_x_at) / RFU MYO3A (11730013_a_at) / Fold change /veh MYO3A (11730013_a_at) / RFU EBF3 (11725865_a_at) / Fold change /veh EBF3 (11725865_a_at) / RFU CAMK2N1 (11719241_x_at) / Fold change /veh CAMK2N1 (11719241_x_at) / RFU C5orf56 (11738088_a_at) / Fold change /veh C5orf56 (11738088_a_at) / RFU OLFML3 (11715873_a_at) / Fold change /veh OLFML3 (11715873_a_at) / RFU LOC100653217 /// NTM (11731650_a_at) / Fold change /veh LOC100653217 /// NTM (11731650_a_at) / RFU MAPK11 (11762145_a_at) / Fold change /veh MAPK11 (11762145_a_at) / RFU FIZ1 (11724087_x_at) / Fold change /veh FIZ1 (11724087_x_at) / RFU OASL (11726364_x_at) / Fold change /veh OASL (11726364_x_at) / RFU SOX15 (11748057_x_at) / Fold change /veh SOX15 (11748057_x_at) / RFU CD79A (11719716_a_at) / Fold change /veh CD79A (11719716_a_at) / RFU HIST1H1D (11736915_at) / Fold change /veh HIST1H1D (11736915_at) / RFU CASKIN2 (11723855_a_at) / Fold change /veh CASKIN2 (11723855_a_at) / RFU LOC730098 (11760151_x_at) / Fold change /veh LOC730098 (11760151_x_at) / RFU OR4N2 (11742367_at) / Fold change /veh OR4N2 (11742367_at) / RFU PRRT2 (11749266_a_at) / Fold change /veh PRRT2 (11749266_a_at) / RFU SNX32 (11753110_a_at) / Fold change /veh SNX32 (11753110_a_at) / RFU CDHR5 (11726645_a_at) / Fold change /veh CDHR5 (11726645_a_at) / RFU RCAN1 (11760418_a_at) / Fold change /veh RCAN1 (11760418_a_at) / RFU FAM167A (11723789_a_at) / Fold change /veh FAM167A (11723789_a_at) / RFU FAM26E (11764081_at) / Fold change /veh FAM26E (11764081_at) / RFU ISYNA1 (11749810_s_at) / Fold change /veh ISYNA1 (11749810_s_at) / RFU ACY1 (11761880_at) / Fold change /veh ACY1 (11761880_at) / RFU 11764098_at / Fold change /veh 11764098_at / RFU SAMD14 (11745864_x_at) / Fold change /veh SAMD14 (11745864_x_at) / RFU NPB (11741838_a_at) / Fold change /veh NPB (11741838_a_at) / RFU TMPRSS6 (11731388_a_at) / Fold change /veh TMPRSS6 (11731388_a_at) / RFU KRTAP10-2 (11738614_at) / Fold change /veh KRTAP10-2 (11738614_at) / RFU ARHGAP8 /// PRR5-ARHGAP8 (11727945_x_at) / Fold change /veh ARHGAP8 /// PRR5-ARHGAP8 (11727945_x_at) / RFU KRTAP5-7 /// NADSYN1 (11734609_at) / Fold change /veh KRTAP5-7 /// NADSYN1 (11734609_at) / RFU RASL12 (11751679_a_at) / Fold change /veh RASL12 (11751679_a_at) / RFU CDKN2B (11736163_a_at) / Fold change /veh CDKN2B (11736163_a_at) / RFU PRF1 (11729649_at) / Fold change /veh PRF1 (11729649_at) / RFU, ZNF638 /// ZNF638-IT1 / Fold change vs veh, ZNF638 /// ZNF638-IT1 / RFU, PANK3 / Fold change vs veh, PANK3 / RFU, SH3YL1 / Fold change vs veh, SH3YL1 / RFU, ZEB2 / Fold change vs veh, ZEB2 / RFU, NRIP1 / Fold change vs veh, NRIP1 / RFU, PTTG1IP / Fold change vs veh, PTTG1IP / RFU, CAPN2 / Fold change vs veh, CAPN2 / RFU, MED14 / Fold change vs veh, MED14 / RFU, SNORA58 / Fold change vs veh, SNORA58 / RFU, C1orf63 / Fold change vs veh, C1orf63 / RFU, LRRFIP1 / Fold change vs veh, LRRFIP1 / RFU, NDUFAF7 / Fold change vs veh, NDUFAF7 / RFU, SLC12A2 / Fold change vs veh, SLC12A2 / RFU, IBTK / Fold change vs veh, IBTK / RFU, ESF1 / Fold change vs veh, ESF1 / Fold change vs veh, TMEM50B / RFU, TAOK1 / Fold change vs veh, TAOK1 / RFU, ACBD3 / Fold change vs veh, ACBD3 / RFU, TMA16 / Fold change vs veh, TMA16 / RFU, RWDD3 / Fold change vs veh, RWDD3 / RFU, BCAT1 / Fold change vs veh, BCAT1 / RFU, EDEM3 / Fold change vs veh, EDEM3 / RFU, TMEM33 / Fold change vs veh, TMEM33 / RFU, WDR75 / Fold change vs veh, WDR75 / RFU, AHCTF1 / Fold change vs veh, AHCTF1 / RFU, TFRC / Fold change vs veh, TFRC / RFU, ZDHHC17 / Fold change vs veh, ZDHHC17 / RFU, NOM1 / Fold change vs veh, NOM1 / RFU, ARL8B / Fold change vs veh, ARL8B / RFU, ZBTB11 / Fold change vs veh, ZBTB11 / RFU, TAMM41 / Fold change vs veh, TAMM41 / RFU, KIAA1704 /// LOC100996395 / Fold change vs veh, KIAA1704 /// LOC100996395 / RFU, ING1 / Fold change vs veh, ING1 / RFU, TRMT61B / Fold change vs veh, TRMT61B / RFU, FUBP3 / Fold change vs veh, FUBP3 / RFU, TP53 / Fold change vs veh, TP53 / RFU, TNKS2 / Fold change vs veh, TNKS2 / RFU, ZFP14 / Fold change vs veh, ZFP14 / RFU, ACTR2 / Fold change vs veh, ACTR2 / RFU, PPP3R1 / Fold change vs veh, PPP3R1 / RFU, PIK3R1 / Fold change vs veh, PIK3R1 / RFU, HNRNPA1 / Fold change vs veh, HNRNPA1 / RFU, RNF170 / Fold change vs veh, RNF170 / RFU, ZNF28 / Fold change vs veh, ZNF28 / RFU, RNGTT / Fold change vs veh, RNGTT / RFU, OGT / Fold change vs veh, OGT / RFU, BRD1 / Fold change vs veh, BRD1 / RFU, MARS / Fold change vs veh, MARS / RFU, ZNF655 / Fold change vs veh, ZNF655 / RFU, FAHD1 / Fold change vs veh, FAHD1 / RFU, BDP1 / Fold change vs veh, BDP1 / RFU, LRRCC1 / Fold change vs veh, LRRCC1 / RFU, ARID1A / Fold change vs veh, ARID1A / RFU, ZNF146 / Fold change vs veh, ZNF146 / RFU, ZNF330 / Fold change vs veh, ZNF330 / RFU, GPN3 / Fold change vs veh, GPN3 / RFU, C9orf123 / Fold change vs veh, C9orf123 / RFU, N4BP2L2 / Fold change vs veh, N4BP2L2 / RFU, ARFIP1 / Fold change vs veh, ARFIP1 / RFU, FAM179B / Fold change vs veh, FAM179B / RFU, BCL10 / Fold change vs veh, BCL10 / RFU, UHRF1BP1L / Fold change vs veh, UHRF1BP1L / RFU, BET1 / Fold change vs veh, BET1 / RFU, CNOT2 / Fold change vs veh, CNOT2 / RFU, ZNF268 / Fold change vs veh, ZNF268 / Fold change vs veh, ZNF507 / RFU, DGCR2 / Fold change vs veh, DGCR2 / RFU, WDSUB1 / Fold change vs veh, WDSUB1 / Fold change vs veh, HSP90B1 /// MIR3652 / RFU, ADSS / Fold change vs veh, ADSS / RFU, GK / Fold change vs veh, GK / RFU, ZNF148 / Fold change vs veh, ZNF148 / RFU, TAF9 / Fold change vs veh, TAF9 / RFU, SLC1A5 / Fold change vs veh, SLC1A5 / RFU, SLMO2 / Fold change vs veh, SLMO2 / RFU, ABCC4 / Fold change vs veh, ABCC4 / RFU, LOC101060439 /// RAP1B / Fold change vs veh, LOC101060439 /// RAP1B / RFU, RFX7 / Fold change vs veh, RFX7 / RFU, GTPBP10 / Fold change vs veh, GTPBP10 / RFU, CNEP1R1 / Fold change vs veh, CNEP1R1 / RFU, BIVM-ERCC5 /// ERCC5 / Fold change vs veh, BIVM-ERCC5 /// ERCC5 / RFU, ILF3 / Fold change vs veh, ILF3 / RFU 11762660_at / Fold change /veh 11762660_at / RFU VCAN (11757783_s_at) / Fold change /veh VCAN (11757783_s_at) / RFU DDX43 (11728927_at) / Fold change /veh DDX43 (11728927_at) / RFU KRT8 (11758188_x_at) / Fold change /veh KRT8 (11758188_x_at) / RFU NKD1 (11759106_at) / Fold change /veh NKD1 (11759106_at) / RFU SRD5A1 (11742802_a_at) / Fold change /veh SRD5A1 (11742802_a_at) / RFU TPSAB1 /// TPSB2 (11721975_s_at) / Fold change /veh TPSAB1 /// TPSB2 (11721975_s_at) / RFU GSTM3 (11746129_a_at) / Fold change /veh GSTM3 (11746129_a_at) / RFU IL23R (11737362_x_at) / Fold change /veh IL23R (11737362_x_at) / RFU TMEM51 (11727254_a_at) / Fold change /veh TMEM51 (11727254_a_at) / RFU PIWIL2 (11732686_x_at) / Fold change /veh PIWIL2 (11732686_x_at) / RFU ORM1 (11744905_x_at) / Fold change /veh ORM1 (11744905_x_at) / RFU CCDC152 (11743942_at) / Fold change /veh CCDC152 (11743942_at) / RFU ECM1 (11717891_a_at) / Fold change /veh ECM1 (11717891_a_at) / RFU IL23R (11748794_a_at) / Fold change /veh IL23R (11748794_a_at) / RFU TNFAIP8L3 (11732012_x_at) / Fold change /veh TNFAIP8L3 (11732012_x_at) / RFU MBOAT4 (11741988_at) / Fold change /veh MBOAT4 (11741988_at) / RFU 11764193_at / Fold change /veh 11764193_at / RFU TMEM53 (11763286_at) / Fold change /veh TMEM53 (11763286_at) / RFU MAGEB2 (11727129_at) / Fold change /veh MAGEB2 (11727129_at) / RFU TMEM200A (11744735_a_at) / Fold change /veh TMEM200A (11744735_a_at) / RFU CCDC152 (11751479_a_at) / Fold change /veh CCDC152 (11751479_a_at) / RFU FAM211A (11726209_a_at) / Fold change /veh FAM211A (11726209_a_at) / RFU RGS16 (11746705_a_at) / Fold change /veh RGS16 (11746705_a_at) / RFU VCAN (11755009_s_at) / Fold change /veh VCAN (11755009_s_at) / RFU RHOB (11743442_s_at) / Fold change /veh RHOB (11743442_s_at) / RFU RGS16 (11720943_a_at) / Fold change /veh RGS16 (11720943_a_at) / RFU RGS16 (11720944_at) / Fold change /veh RGS16 (11720944_at) / RFU, VPS4B / Fold change vs veh, VPS4B / RFU, CREB1 / Fold change vs veh, CREB1 / RFU, DNAJC13 / Fold change vs veh, DNAJC13 / RFU, GNAQ / Fold change vs veh, GNAQ / RFU, CDK5R1 / Fold change vs veh, CDK5R1 / RFU, ZRANB3 / Fold change vs veh, ZRANB3 / RFU, CUL4A / Fold change vs veh, CUL4A / RFU, CCNY / Fold change vs veh, CCNY / RFU, UFL1 / Fold change vs veh, UFL1 / RFU, COG3 / Fold change vs veh, COG3 / RFU, DIAPH2 / Fold change vs veh, DIAPH2 / RFU, SKA2 / Fold change vs veh, SKA2 / RFU, AFF3 / Fold change vs veh, AFF3 / RFU, LMF1 / Fold change vs veh, LMF1 / RFU, IPO11 / Fold change vs veh, IPO11 / RFU, DFFB / Fold change vs veh, DFFB / RFU, FOXP1 / Fold change vs veh, FOXP1 / RFU, CARD8 / Fold change vs veh, CARD8 / RFU, STRN3 / Fold change vs veh, STRN3 / RFU, ADK / Fold change vs veh, ADK / RFU, RASSF2 / Fold change vs veh, RASSF2 / RFU, WIPF1 / Fold change vs veh, WIPF1 / RFU, LARP1B / Fold change vs veh, LARP1B / RFU, RASA1 / Fold change vs veh, RASA1 / RFU, RB1 / Fold change vs veh, RB1 / RFU, PPFIA1 / Fold change vs veh, PPFIA1 / RFU, MAT2A / Fold change vs veh, MAT2A / RFU, CCT5 / Fold change vs veh, CCT5 / RFU, WDR92 / Fold change vs veh, WDR92 / RFU, CUX1 / Fold change vs veh, CUX1 / RFU, TTC7A / Fold change vs veh, TTC7A / RFU, TMEM135 / Fold change vs veh, TMEM135 / RFU, DEPTOR / Fold change vs veh, DEPTOR / RFU, CPM / Fold change vs veh, CPM / RFU, DNAJB6 / Fold change vs veh, DNAJB6 / RFU, CACNA2D3 / Fold change vs veh, CACNA2D3 / RFU, DTX4 / Fold change vs veh, DTX4 / RFU, TFCP2 / Fold change vs veh, TFCP2 / RFU, GMCL1 /// GMCL1P1 / Fold change vs veh, GMCL1 /// GMCL1P1 / RFU, AEBP2 / Fold change vs veh, AEBP2 / RFU, SNHG1 /// SNORD22 /// SNORD25 /// SNORD26 /// SNORD27 /// SNORD28 /// SNORD29 /// SNORD31 / Fold change vs veh, SNHG1 /// SNORD22 /// SNORD25 /// SNORD26 /// SNORD27 /// SNORD28 /// SNORD29 /// SNORD31 / Fold change (Aza/veh), C12orf56 (ProbeSet 11735607_a_at) / Fold change (ACY-1035/veh), C12orf56 (ProbeSet 11735607_a_at) / Fold change (Aza/veh), FGFR1OP (ProbeSet 11751329_s_at) / Fold change (ACY-1035/veh), FGFR1OP (ProbeSet 11751329_s_at) / Fold change (Aza/veh), VPS36 (ProbeSet 11739960_a_at) / Fold change (ACY-1035/veh), VPS36 (ProbeSet 11739960_a_at) / RFU SYPL1 (11715823_x_at) / Fold change /veh SYPL1 (11715823_x_at) / RFU IGFBP7 (11715501_s_at) / Fold change /veh IGFBP7 (11715501_s_at) / RFU REEP3 (11722064_at) / Fold change /veh REEP3 (11722064_at) / RFU IGLL1 (11728026_x_at) / Fold change /veh IGLL1 (11728026_x_at): dose or concentration left out as unconfirmed
Conditions: MV-4-11 cells, 48 hours

Nc1ccc(-c2cccs2)cc1NC(=O)c1ccc2c(c1)cc(C1CC1)n2CCN1CCOCC1 [ACY-1035] was tested, and the “Fold change /veh ARHGAP8 /// PRR5-ARHGAP8 (11727945_x_at)” value was 1.04.
